IC50 data for 1 compound are collected here from publication PMC8399019, “Inhibition of Cysteine Proteases by 6,6′-Dihydroxythiobinupharidine (DTBN) from Nuphar lutea” (Molecules, 2021).

Molecules are shown by their SMILES.

Holding throughout (format): biochemical
One experiment concerns the target T1, Papain Latex (Carica papaya, UniProt P00784).
T1 construct: purchased Sigma-Aldrich p3125
Put plainly: Enzyme inhibition assay, Papain Latex (casein-FITC). The protocol:
(§1) Enzyme inhibition assays were performed in triplicates using transparent 96-well plates for Calpain, Trypsin, Papain, Cathepsin L and Cathepsin B (167008; Nunc, Roskilde, Denmark), or black ones for Cathepsin S, (Greiner 96 Polystyrol GRE96fb), according to manufacturers’ instructions. Briefly, a reaction mixture of 100 µL contained: 45µL of enzyme in assay buffer, 5 µL of inhibitor diluted in DMSO. 50 µL substrate prepared in assay buffer according to manufacturers’ instructions. The inhibitor was serially diluted in DMSO to concentrations from 0.0075 µg/µL to 0.0000075 µg/µL. A total of […] DMSO was added to the control sample. The enzyme substrate mix was added last, just before starting the fluorometric measurement. Data were collected for 1.5 h at 60 sec intervals.
(§2) Papain Latex (cat. No. p3125), Human Cathepsin B (cat.no. C0150), Trypsin and Calpain (cat. No. ab910119) and the substrate, casein-FITC, were obtained from Sigma-Aldrich. The assay was carried out in 0.3 M potassium chloride, 0.1 mM EDTA, and 3 mM DTT pH 6.5. Ex/Em = 485–535 nm. Human Cathepsins S (cat. No. 1183-cy) and L (cat.no. ab174030) and their substrates were Mca-RPKPVE-Nval-WRK (Dnp)-NH2 (ES002) and Ac-FR-AFC, respectively. They were obtained from ABCAM. Assay buffer for Human Cathepsin S was 50 mM NaOAc, 250 mM NaCl, 5 mM DTT pH 4.5. […]

Another experiment addresses T2, Human Cathepsin B (Homo sapiens, UniProt P07858).
T2 construct: purchased Sigma-Aldrich C0150
Put plainly: Enzyme inhibition assay, Human Cathepsin B (casein-FITC). The note with it: triplicates, value (SD). The protocol: as §1, §2

A further experiment concerns the target T3, Human Cathepsin L (Homo sapiens, UniProt P07711).
T3 construct: purchased ABCAM ab174030
Kind of experiment: Enzyme inhibition assay, Human Cathepsin L (fluorometric). Conditions: triplicates, value (SD). On the procedure: as §1, §2

A further experiment concerns the target T4, Human Cathepsin S (Homo sapiens, UniProt P25774).
T4 construct: purchased ABCAM (so in the source) 1183-cy
Put plainly: Enzyme inhibition assay, Human Cathepsin S (fluorometric). Conditions: triplicates, value (SD). On the procedure: as §1, §2

T3 sequence (P07711 114-333): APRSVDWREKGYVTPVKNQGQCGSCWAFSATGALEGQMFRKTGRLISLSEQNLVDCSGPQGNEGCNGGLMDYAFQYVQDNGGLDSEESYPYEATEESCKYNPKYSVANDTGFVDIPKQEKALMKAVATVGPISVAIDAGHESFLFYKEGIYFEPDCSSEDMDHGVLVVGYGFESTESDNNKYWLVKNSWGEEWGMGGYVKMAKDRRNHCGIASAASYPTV
T4 sequence (P25774 115-331): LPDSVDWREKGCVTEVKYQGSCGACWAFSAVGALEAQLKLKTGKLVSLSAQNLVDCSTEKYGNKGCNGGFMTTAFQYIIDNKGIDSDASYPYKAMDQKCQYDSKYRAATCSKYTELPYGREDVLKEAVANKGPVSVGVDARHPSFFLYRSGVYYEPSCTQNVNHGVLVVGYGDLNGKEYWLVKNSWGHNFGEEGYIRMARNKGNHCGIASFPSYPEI
T1 sequence (P00784 134-345): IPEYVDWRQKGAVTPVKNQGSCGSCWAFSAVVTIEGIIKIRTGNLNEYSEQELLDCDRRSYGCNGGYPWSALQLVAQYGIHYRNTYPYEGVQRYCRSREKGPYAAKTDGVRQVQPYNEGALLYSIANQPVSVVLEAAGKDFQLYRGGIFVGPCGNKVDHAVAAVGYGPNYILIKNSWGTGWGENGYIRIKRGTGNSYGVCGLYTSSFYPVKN

With `CC1CCC(c2ccoc2)N2C1CCC1(CSC3(CCC4C(C)CCC(c5ccoc5)N4C3O)C1)C2O` (stereo not shown) [DTBN, 6,6′-dihydroxythiobinupharidine], the IC50 (commonly the point on the concentration scale where inhibition reaches its midpoint) at Papain Latex turned out to be 70.4 µM; against Human Cathepsin B, 1360 µM; at Human Cathepsin L it was 13.2 µM; against Human Cathepsin S it was 3.2 µM.
